According to the NIST ThermoML archive (doi:10.1021/je100967k):
“And” between values parts separate entries of the source, which are not always exact repeats. Identical values can stand only once. ± gives the expanded uncertainty stated by the source.

What was measured:
[1] = refractive index (Na D-line) (dimensionless); conditions: 101.33 kPa, Liquid, Standard Abbe refractometry
[2] = 101 kPa, Liquid; for speed of sound: Pulse-echo method
[3] = refractive index (Na D-line) (dimensionless); xn = mol fraction of the nth substance listed; conditions: 101 kPa, Liquid, Standard Abbe refractometry
[4] = xn = mol fraction of the nth substance listed; conditions: 101 kPa, Liquid; for speed of sound: Pulse-echo method

| SMILES | refractive index ([1]; 293.15 K) | refractive index ([1]; 303.15 K) | refractive index ([1]; 313.15 K) | refractive index ([1]; 323.15 K) | mass density ([2]; 293.15 K) | viscosity ([2]; 293.15 K) | speed of sound ([2]; 293.15 K) | mass density ([2]; 303.15 K) | viscosity ([2]; 303.15 K) | speed of sound ([2]; 303.15 K) | mass density ([2]; 313.15 K) | viscosity ([2]; 313.15 K) | speed of sound ([2]; 313.15 K) | mass density ([2]; 323.15 K) | viscosity ([2]; 323.15 K) | speed of sound ([2]; 323.15 K) | further results |
| --- | --- | --- | --- | --- | --- | --- | --- | --- | --- | --- | --- | --- | --- | --- | --- | --- | --- |
| CCO [ethanol] | 1.3616 ± 0.0005 | 1.3574 ± 0.0005 | 1.3532 ± 0.0005 | 1.3493 ± 0.0005 | 789.54 ± 0.73 kg/m3 | 1.116 ± 0.018 mPa·s | 1162.3 ± 0.9 m/s | 780.94 ± 0.75 kg/m3 | 0.9502 ± 0.016 mPa·s | 1128.9 ± 0.9 m/s | 772.2 ± 0.77 kg/m3 | 0.7899 ± 0.013 mPa·s | 1095.4 ± 0.9 m/s | 763.29 ± 0.78 kg/m3 | 0.6304 ± 0.011 mPa·s | 1071.9 ± 0.9 m/s | – |
| NCCO [2-aminoethan-1-ol] | 1.4525 ± 0.0005 | 1.4488 ± 0.0005 | 1.4449 ± 0.0005 | 1.4417 ± 0.0005 | 1016.65 ± 0.52 kg/m3 | 24.61 ± 0.35 mPa·s | 1735.9 ± 1.4 m/s | 1008.74 ± 0.51 kg/m3 | 14.96 ± 0.24 mPa·s | 1703.7 ± 1.4 m/s | 1000.77 ± 0.49 kg/m3 | 9.839 ± 0.15 mPa·s | 1671.2 ± 1.4 m/s | 992.75 ± 0.5 kg/m3 | 6.902 ± 0.11 mPa·s | 1638.8 ± 1.3 m/s | – |
| CCO [ethanol] + CN1CCCC1=O | – | – | – | – | – | – | – | – | – | – | – | – | – | – | – | – | refractive index ([3]; 293.15 K, x2 = 0): 1.3616 ± 0.0005; refractive index ([3]; 303.15 K, x2 = 0): 1.3574 ± 0.0005; refractive index ([3]; 313.15 K, x2 = 0): 1.3532 ± 0.0005; refractive index ([3]; 323.15 K, x2 = 0): 1.3493 ± 0.0005; speed of sound ([4]; 293.15 K, x2 = 0): 1162.3 ± 0.9 m/s; mass density ([4]; 293.15 K, x2 = 0): 789.54 ± 0.73 kg/m3; viscosity ([4]; 293.15 K, x2 = 0): 1.116 ± 0.018 mPa·s; speed of sound ([4]; 303.15 K, x2 = 0): 1128.9 ± 0.9 m/s; mass density ([4]; 303.15 K, x2 = 0): 780.94 ± 0.75 kg/m3; viscosity ([4]; 303.15 K, x2 = 0): 0.9502 ± 0.016 mPa·s; speed of sound ([4]; 313.15 K, x2 = 0): 1095.4 ± 0.9 m/s; mass density ([4]; 313.15 K, x2 = 0): 772.2 ± 0.77 kg/m3; viscosity ([4]; 313.15 K, x2 = 0): 0.7899 ± 0.013 mPa·s; speed of sound ([4]; 323.15 K, x2 = 0): 1071.9 ± 0.9 m/s; mass density ([4]; 323.15 K, x2 = 0): 763.29 ± 0.78 kg/m3; viscosity ([4]; 323.15 K, x2 = 0): 0.6304 ± 0.011 mPa·s |
| CN1CCCC1=O [N-methylpyrrolidone] + NCCO | – | – | – | – | – | – | – | – | – | – | – | – | – | – | – | – | refractive index ([3]; 293.15 K, x1 = 1): 1.4691 ± 0.0006; refractive index ([3]; 303.15 K, x1 = 1): 1.4647 ± 0.0006; refractive index ([3]; 313.15 K, x1 = 1): 1.4603 ± 0.0006; refractive index ([3]; 323.15 K, x1 = 1): 1.4559 ± 0.0006; speed of sound ([4]; 293.15 K, x1 = 1): 1565.3 ± 1.4 m/s; mass density ([4]; 293.15 K, x1 = 1): 1032.87 ± 0.55 kg/m3; viscosity ([4]; 293.15 K, x1 = 1): 1.858 ± 0.03 mPa·s; speed of sound ([4]; 303.15 K, x1 = 1): 1526.5 ± 1.3 m/s; mass density ([4]; 303.15 K, x1 = 1): 1023.95 ± 0.53 kg/m3; viscosity ([4]; 303.15 K, x1 = 1): 1.553 ± 0.025 mPa·s; speed of sound ([4]; 313.15 K, x1 = 1): 1487.8 ± 1.3 m/s; mass density ([4]; 313.15 K, x1 = 1): 1015.03 ± 0.52 kg/m3; viscosity ([4]; 313.15 K, x1 = 1): 1.324 ± 0.022 mPa·s; speed of sound ([4]; 323.15 K, x1 = 1): 1450.2 ± 1.3 m/s; mass density ([4]; 323.15 K, x1 = 1): 1006.1 ± 0.5 kg/m3; viscosity ([4]; 323.15 K, x1 = 1): 1.146 ± 0.019 mPa·s |
| CN1CCCC1=O [N-methylpyrrolidone] | 1.4706 ± 0.0006 and 1.4691 ± 0.0006 | 1.4664 ± 0.0006 and 1.4647 ± 0.0006 | 1.4621 ± 0.0006 and 1.4603 ± 0.0006 | 1.4576 ± 0.0006 and 1.4559 ± 0.0006 | 1032.87 ± 0.55 kg/m3 | 1.858 ± 0.03 mPa·s | 1565.3 ± 1.4 m/s | 1023.95 ± 0.53 kg/m3 | 1.553 ± 0.025 mPa·s | 1526.5 ± 1.3 m/s | 1015.03 ± 0.52 kg/m3 | 1.324 ± 0.022 mPa·s | 1487.8 ± 1.3 m/s | 1006.1 ± 0.5 kg/m3 | 1.146 ± 0.019 mPa·s | 1450.2 ± 1.3 m/s | – |
